# Patent US6930227B1 (Mitsui Chemicals, Inc., priority 1999, dated 2005)
# T1: N-methyl transferase (Camellia sinensis, UniProt Q9FZN8)
# T1 construct: made in house; host or cells: Escherichia coli BL21 (DE3), vector pET23d
# T1 sequence (Q9FZN8 14-369 limits assumed): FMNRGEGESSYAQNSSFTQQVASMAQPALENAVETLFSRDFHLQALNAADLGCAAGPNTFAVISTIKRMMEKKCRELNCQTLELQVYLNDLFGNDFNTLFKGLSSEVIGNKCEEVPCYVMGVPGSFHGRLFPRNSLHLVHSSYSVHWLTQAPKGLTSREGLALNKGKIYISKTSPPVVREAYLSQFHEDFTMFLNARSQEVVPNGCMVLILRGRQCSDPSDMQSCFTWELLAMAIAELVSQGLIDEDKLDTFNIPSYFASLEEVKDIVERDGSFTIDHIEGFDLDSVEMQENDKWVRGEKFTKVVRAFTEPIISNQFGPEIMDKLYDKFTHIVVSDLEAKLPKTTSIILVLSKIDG
# T2: N-methyl transferase (Camellia sinensis, UniProt Q9FZN8)
# T2 sequence (Q9FZN8 1-369): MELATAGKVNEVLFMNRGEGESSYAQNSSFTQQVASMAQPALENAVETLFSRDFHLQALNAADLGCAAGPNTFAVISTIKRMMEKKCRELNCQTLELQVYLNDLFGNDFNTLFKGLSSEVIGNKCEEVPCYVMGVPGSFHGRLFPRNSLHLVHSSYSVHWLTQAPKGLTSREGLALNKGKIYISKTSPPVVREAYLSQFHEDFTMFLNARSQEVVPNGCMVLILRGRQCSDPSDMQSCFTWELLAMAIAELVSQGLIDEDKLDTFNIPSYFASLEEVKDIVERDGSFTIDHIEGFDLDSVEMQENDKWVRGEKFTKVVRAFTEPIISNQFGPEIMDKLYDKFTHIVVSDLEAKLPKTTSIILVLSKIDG
# What was measured:
# N-methyl transferase [1] = molecular target: T1, N-methyl transferase; experiment: N-methyl transferase measurement with enzyme solution from Escherichia coli expressing the gene (14C-caffeine extraction); type: biochemical; details: for production of methylated product from the added substrate: substrate added instead of paraxanthine, same reaction solution
# Protocol: Separately, a fragment obtained by treating the isolated N-methyl transferase gene DNA fragment with NcoI and EcoRI was inserted into a pET23d vector. Then, the above PCR product was inserted into the NcoI site of this pET23d vector to construct an N-methyl transferase expression plasmid. This plasmid was transformed to Escherichia coli BL21 (DE3). After the obtained Escherichia coli was cultured at 37° C. for 2 hours, IPTG was added thereto so as to be 0.3 mM in final concentration, and 3-hour culture was further carried out at 30° C. After culturing had been completed, cells were collected and the cells from 3 ml culture solution were subjected to supersonic treatment for 1 minute with interval in 0.2 ml 10 mM Tris-hydrochloric acid buffer solution (pH 7.5), 0.1 M NaCl, 1 mM EDTA-Na2. Then, centrifugation was carried out at 14,000 rpm for 10 minutes, and the obtained supernatant was employed as an enzyme solution.
# The reaction solution for N-methyl transferase measurement was prepared as follows. […] Reaction was carried out at 27° C. for 10 minutes, the obtained ^14C-caffeine was extracted by adding 1 ml chloroform thereto and the radiation activity of a chloroform layer was measured. As a control, xanthosine was added to the reaction solution instead of paraxanthine or paraxanthine was removed.
# N-methyl transferase [2] = molecular target: T2, N-methyl transferase; type: biochemical
# Protocol: Inhibitor: SAH (S-adenosyl homocysteine)
# The reaction solution for N-methyl transferase measurement was prepared as follows. […] Reaction was carried out at 27° C. for 10 minutes, the obtained ^14C-caffeine was extracted by adding 1 ml chloroform thereto and the radiation activity of a chloroform layer was measured.
# [3] = substrate: Cn1c(=O)[nH]c2ncn(C)c2c1=O; experiment: purified protein, by the assay type; details: other: substrate of the N-methyl transferase; pH 8.5; 27.0 °C
molecule,measurement,setting,value
Cn1cnc2[nH]c(=O)[nH]c(=O)c21 [7-methyl xanthine],production of methylated product from the added substrate,N-methyl transferase [1],production of theobromine was observed
"Nc1ncnc2c1ncn2[C@@H]1O[C@H](CSCC[C@H](N)C(=O)O)[C@@H](O)[C@H]1O [SAH, S-adenosyl homocysteine]",Inhibitor,N-methyl transferase [2]; inhibitor of the N-methyl transferase,Inhibitor
"C[S+](CC[C@H](N)C(=O)[O-])C[C@H]1O[C@@H](n2cnc3c(N)ncnc32)[C@H](O)[C@@H]1O (some centres unmarked) [SAM, S-adenosyl methionine]",Km,N-methyl transferase [2]; substrate of the N-methyl transferase,21 µM
Cn1c(=O)[nH]c2ncn(C)c2c1=O [paraxanthine],caffeine produced,"N-methyl transferase [1]; 0.2 mM substrate, 4 μM S-adenosyl methionine, 10 μl enzyme solution, pH 8.5, 27° C., 10 minutes",1.56 pmol
Cn1cnc2c1c(=O)[nH]c(=O)n2C [theobromine],production of methylated product from the added substrate,N-methyl transferase [1],production of caffeine was observed
O=c1[nH]c(=O)c2ncn([C@@H]3O[C@H](CO)[C@@H](O)[C@H]3O)c2[nH]1 [xanthosine],production of methylated product from the added substrate,N-methyl transferase [1],caffeine was produced only when paraxanthine was added
"N-methyl transferase: polypeptide of SEQ ID NO: 1 with 7-methyl xanthine N3, theobromine N1 and paraxanthine N3 methyl transferase activities (protein) FMNRGEGESSYAQNSSFTQQVASMAQPALENAVETLFSRDFHLQALNAADLGCAAGPNTFAVISTIKRMMEKKCRELNCQTLELQVYLNDLFGNDFNTLFKGLSSEVIGNKCEEVPCYVMGVPGSFHGRLFPRNSLHLVHSSYSVHWLTQAPKGLTSREGLALNKGKIYISKTSPPVVREAYLSQFHEDFTMFLNARSQEVVPNGCMVLILRGRQCSDPSDMQSCFTWELLAMAIAELVSQGLIDEDKLDTFNIPSYFASLEEVKDIVERDGSFTIDHIEGFDLDSVEMQENDKWVRGEKFTKVVRAFTEPIISNQFGPEIMDKLYDKFTHIVVSDLEAKLPKTTSIILVLSKIDG",Optimum pH,N-methyl transferase [2],8.5
N-methyl transferase (Camellia sinensis) (protein) MELATAGKVNEVLFMNRGEGESSYAQNSSFTQQVASMAQPALENAVETLFSRDFHLQALNAADLGCAAGPNTFAVISTIKRMMEKKCRELNCQTLELQVYLNDLFGNDFNTLFKGLSSEVIGNKCEEVPCYVMGVPGSFHGRLFPRNSLHLVHSSYSVHWLTQAPKGLTSREGLALNKGKIYISKTSPPVVREAYLSQFHEDFTMFLNARSQEVVPNGCMVLILRGRQCSDPSDMQSCFTWELLAMAIAELVSQGLIDEDKLDTFNIPSYFASLEEVKDIVERDGSFTIDHIEGFDLDSVEMQENDKWVRGEKFTKVVRAFTEPIISNQFGPEIMDKLYDKFTHIVVSDLEAKLPKTTSIILVLSKIDG,Km,[3],24 µM
